What was measured:
[1] = biological target: T1, Gonadotropin-releasing hormone receptor (Rattus norvegicus, UniProt P30969); assay: In vitro binding affinity towards […] from rat pituitary cells is expressed as negative logarithm of the equilibrium dissociation constant; type: cell-based, Pituitary gland cell
T1 sequence (P30969 whole entry): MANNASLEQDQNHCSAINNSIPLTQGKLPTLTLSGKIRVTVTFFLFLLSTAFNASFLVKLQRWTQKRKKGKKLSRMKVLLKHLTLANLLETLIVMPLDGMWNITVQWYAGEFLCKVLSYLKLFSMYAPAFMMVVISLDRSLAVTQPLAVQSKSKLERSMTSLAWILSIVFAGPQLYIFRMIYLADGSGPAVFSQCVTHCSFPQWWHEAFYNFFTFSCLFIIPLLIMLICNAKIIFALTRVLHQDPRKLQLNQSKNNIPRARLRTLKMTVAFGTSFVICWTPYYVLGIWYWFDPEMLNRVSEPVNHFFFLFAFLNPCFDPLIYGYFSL

[2] = biological target: Gonadotropin-releasing hormone receptor (Rattus norvegicus) (UniProt P30969); assay: Luteinizing hormone inhibiting potency in rats is expressed as negative logarithm of the concentration (antagonist); conditions: read-out: pA2 (converted)

| Ki [1] | Kb [2] | SMILES |
| --- | --- | --- |
| 50.1 nM | – | CCNC(=O)[C@@H]1CCCN1C(=O)[C@H](CCCN=C(N)N)NC(=O)[C@H](CC(C)C)NC(=O)[C@@H](CC(C)C)NC(=O)[C@H](Cc1ccc(O)cc1)NC(=O)[C@H](CO)NC(=O)[C@@H](N)Cc1cccc2ccccc12 |
| – | 871 nM | CCNC(=O)[C@@H]1CCCN1C(=O)[C@H](CCCN=C(N)N)NC(=O)[C@H](CC(C)C)NC(=O)[C@@H](CC(C)C)NC(=O)[C@H](Cc1ccc(O)cc1)NC(=O)[C@H](CO)NC(=O)[C@@H](N)Cc1c[nH]c2ccccc12 |
| – | 57.5 nM | CCNC(=O)[C@@H]1CCCN1C(=O)[C@H](CCCN=C(N)N)NC(=O)[C@H](CC(C)C)NC(=O)[C@@H](Cc1c[nH]c2ccccc12)NC(=O)[C@H](Cc1ccc(O)cc1)NC(=O)[C@H](CO)NC(=O)[C@@H](N)Cc1c[nH]c2ccccc12 |
